Our source for the IC50 values is patent US8592456B2 (4SC Discovery GmbH, priority 2011, dated 2013).

Molecules are shown by their SMILES.

This test relates to PBMC (T cell proliferation). Kind of test: T cell proliferation assay, PHA-stimulated human PBMC (BrdU ELISA). Type of test: cell-based. As to conditions: human PBMC, 2 μg/ml PHA, 48 hours, BrdU; read-out: D: IC50 (Tcell proliferation). The procedure, abridged: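 BrdU ELISA readout of proliferation at 48 hours. Cells: human PBMC from healthy donors in 10% dialyzed FCS/RPMI1640, 1×10^5 per well, activated by 2 μg/ml phytohaemagglutinin in the presence of compound.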
Background: Dividing cells build labelled thymidine or BrdU into new DNA.
As for `O=C(Nc1c(-c2c(F)cccc2Cl)noc1-c1cnn(-c2cccc(F)c2)c1C(F)(F)F)C(F)(F)F` [Example B-22, N-(3-(2-chloro-6-fluorophenyl)-5-[1-(3-fluorophenyl)-5-(trifluoromethyl)-1H-pyrazol-4-yl]-1,2-oxazol-4-yl)-2,2,2-trifluoroacetamide], the IC50 was 1000 to 10000 nM.
The value for `Fc1ccc(-n2ncc(-c3onc(-c4c(F)cccc4Cl)c3Br)c2C(F)(F)F)c(F)c1` [Example B-24, 4-bromo-3-(2-chloro-6-fluorophenyl)-5-(1-(2,4-difluorophenyl)-5-(trifluoromethyl)-1H-pyrazol-4-yl)isoxazole] was 1000 to 10000 nM.
The result for `Fc1ccccc1-n1ncc(-c2onc(-c3c(F)cccc3Cl)c2Br)c1C(F)(F)F` [Example B-26, 4-bromo-3-(2-chloro-6-fluorophenyl)-5-(1-(2-fluorophenyl)-5-(trifluoromethyl)-1H-pyrazol-4-yl)isoxazole] reads 1000 to 10000 nM; that for `Fc1cc(F)cc(-n2ncc(-c3onc(-c4c(F)cccc4Cl)c3Br)c2C(F)(F)F)c1` [Example B-27, 4-bromo-3-(2-chloro-6-fluorophenyl)-5-(1-(3,5-difluorophenyl)-5-(trifluoromethyl)-1H-pyrazol-4-yl)isoxazole], 100 to 1000 nM.
Consider `Fc1ccc(-n2ncc(-c3onc(-c4c(F)cccc4Cl)c3Br)c2C(F)(F)F)cc1` [Example B-28, 4-bromo-3-(2-chloro-6-fluorophenyl)-5-(1-(4-fluorophenyl)-5-(trifluoromethyl)-1H-pyrazol-4-yl)isoxazole], for which the IC50 fell in the range of 100 to 1000 nM.
The result for `CC(C)=NNC(=O)c1c(-c2c(F)cccc2Cl)noc1-c1cnn(-c2cccc(F)c2)c1` [Example B-29, 3-(2-chloro-6-fluorophenyl)-5-(1-(3-fluorophenyl)-1H-pyrazol-4-yl)-N′-(propan-2-ylidene)isoxazole-4-carbohydrazide] reads 1000 to 10000 nM.
The value for `COC(=O)c1c(-c2ccccc2)noc1-c1cnn(-c2cccc(Cl)c2)c1C(F)(F)F` [Example B-30, methyl 5-(1-(3-chlorophenyl)-5-(trifluoromethyl)-1H-pyrazol-4-yl)-3-phenylisoxazole-4-carboxylate] was 100 to 1000 nM; that for `CC(C)OC(=O)c1c(-c2c(F)cccc2Cl)noc1-c1cnn(-c2cccc(Cl)c2)c1C(F)(F)F` [Example B-31, isopropyl 3-(2-chloro-6-fluorophenyl)-5-(1-(3-chlorophenyl)-5-(trifluoromethyl)-1H-pyrazol-4-yl)isoxazole-4-carboxylate] was under 10 nM.
The value for `CCOC(=O)c1c(-c2c(F)cccc2Cl)noc1-c1cnn(-c2cccc(C#N)c2)c1C(F)(F)F` [Example B-32, ethyl 3-(2-chloro-6-fluorophenyl)-5-(1-(3-cyanophenyl)-5-(trifluoromethyl)-1H-pyrazol-4-yl)isoxazole-4-carboxylate] was 10 to 100 nM; that for `CN1CCN(C(=O)c2c(-c3c(F)cccc3Cl)noc2-c2cnn(-c3cccc(Cl)c3)c2C(F)(F)F)CC1` [Example B-34, (3-(2-chloro-6-fluorophenyl)-5-(1-(3-chlorophenyl)-5-(trifluoromethyl)-1H-pyrazol-4-yl)-isoxazol-4-yl)(4-methylpiperazin-1-yl)methanone] was 100 to 1000 nM; that for `O=C(c1c(-c2c(F)cccc2Cl)noc1-c1cnn(-c2cccc(Cl)c2)c1C(F)(F)F)N1CCOCC1` [Example B-35, (3-(2-chloro-6-fluorophenyl)-5-(1-(3-chlorophenyl)-5-(trifluoromethyl)-1H-pyrazol-4-yl)isoxazol-4-yl)(morpholino)methanone] was 1000 to 10000 nM.
Regarding `Nc1c(-c2c(F)cccc2Cl)noc1-c1cnn(-c2cccc(Cl)c2)c1C(F)(F)F` [Example B-36, 3-(2-chloro-6-fluorophenyl)-5-(1-(3-chlorophenyl)-5-(trifluoromethyl)-1H-pyrazol-4-yl)isoxazol-4-amine], the IC50 is 100 to 1000 nM.
`CCOC(=O)c1c(-c2c(F)cccc2Cl)noc1-c1cnn(-c2cccnc2)c1C(F)(F)F` [Example B-37, ethyl 3-(2-chloro-6-fluorophenyl)-5-(1-(pyridin-3-yl)-5-(trifluoromethyl)-1H-pyrazol-4-yl)-isoxazole-4-carboxylate]: the IC50 is under 10 nM.
`CCOC(=O)c1c(-c2c(F)cccc2Cl)noc1-c1cnn(-c2ccncc2)c1C(F)(F)F` [Example B-38, ethyl 3-(2-chloro-6-fluorophenyl)-5-(1-(pyridin-4-yl)-5-(trifluoromethyl)-1H-pyrazol-4-yl)-isoxazole-4-carboxylate]: the IC50 was under 10 nM.
The result for `CC(=O)Nc1c(-c2c(F)cccc2Cl)noc1-c1cnn(-c2cccc(Cl)c2)c1C(F)(F)F` [Example B-39, N-(3-(2-chloro-6-fluorophenyl)-5-(1-(3-chlorophenyl)-5-(trifluoromethyl)-1H-pyrazol-4-yl)-isoxazol-4-yl)acetamide] reads 1000 to 10000 nM; that for `CCOC(=O)c1c(-c2c(F)cccc2Cl)noc1-c1cnn(-c2ccc(C#N)cc2)c1C(F)(F)F` [Example B-40, ethyl 3-(2-chloro-6-fluorophenyl)-5-(1-(4-cyanophenyl)-5-(trifluoromethyl)-1H-pyrazol-4-yl)-isoxazole-4-carboxylate], 1000 to 10000 nM.
The value for `CCOC(=O)c1c(-c2ccccc2Cl)noc1-c1cnn(-c2cccc(Cl)c2)c1C(F)(F)F` [Example B-41, ethyl 3-(2-chlorophenyl)-5-(1-(3-chlorophenyl)-5-(trifluoromethyl)-1H-pyrazol-4-yl)-isoxazole-4-carboxylate] was 10 to 100 nM; that for `O=C(O)c1c(-c2ccccc2Cl)noc1-c1cnn(-c2cccc(Cl)c2)c1C(F)(F)F` [Example B-42, 3-(2-chlorophenyl)-5-(1-(3-chlorophenyl)-5-(trifluoromethyl)-1H-pyrazol-4-yl)-isoxazole-4-carboxylic acid] was 1000 to 10000 nM; that for `CCOC(=O)c1c(-c2c(F)cccc2Cl)noc1-c1cnn(-c2cccc(S(N)(=O)=O)c2)c1C(F)(F)F` [Example B-43, ethyl 3-(2-chloro-6-fluorophenyl)-5-(1-(3-sulfamoylphenyl)-5-(trifluoromethyl)-1H-pyrazol-4-yl)-isoxazole-4-carboxylate] was 1000 to 10000 nM.
The value for `CCOC(=O)c1c(-c2c(F)cccc2Cl)noc1-c1cnn(-c2ccccc2C#N)c1C(F)(F)F` [Example B-44, ethyl 3-(2-chloro-6-fluorophenyl)-5-(1-(2-cyanophenyl)-5-(trifluoromethyl)-1H-pyrazol-4-yl)-isoxazole-4-carboxylate] was 1000 to 10000 nM; that for `CCOC(=O)c1c(-c2c(Cl)cccc2Cl)noc1-c1cnn(-c2cccc(Cl)c2)c1C(F)(F)F` [Example B-45, ethyl 5-(1-(3-chlorophenyl)-5-(trifluoromethyl)-1H-pyrazol-4-yl)-3-(2,6-dichlorophenyl)-isoxazole-4-carboxylate] was under 10 nM.
Consider `CCOC(=O)c1c(-c2ccc(Cl)cc2Cl)noc1-c1cnn(-c2cccc(Cl)c2)c1C(F)(F)F` [Example B-46, ethyl 5-(1-(3-chlorophenyl)-5-(trifluoromethyl)-1H-pyrazol-4-yl)-3-(2,4-dichlorophenyl)-isoxazole-4-carboxylate], for which the IC50 is 100 to 1000 nM.
Take `CCOC(=O)c1c(-c2ccccc2F)noc1-c1cnn(-c2cccc(Cl)c2)c1C(F)(F)F` [Example B-47, ethyl 5-(1-(3-chlorophenyl)-5-(trifluoromethyl)-1H-pyrazol-4-yl)-3-(2-fluorophenyl)isoxazole-4-carboxylate]: the IC50 was in the range of 10 to 100 nM.
The value for `O=CNc1c(-c2c(F)cccc2Cl)noc1-c1cnn(-c2cccc(Cl)c2)c1C(F)(F)F` [Example B-48, N-(3-(2-chloro-6-fluorophenyl)-5-(1-(3-chlorophenyl)-5-(trifluoromethyl)-1H-pyrazol-4-yl)isoxazol-4-yl)formamide] was 1000 to 10000 nM; that for `O=C(c1c(-c2c(F)cccc2Cl)noc1-c1cnn(-c2ccccc2Cl)c1C(F)(F)F)N1CCCO1` [Example B-49, (3-(2-chloro-6-fluorophenyl)-5-(1-(2-chlorophenyl)-5-(trifluoromethyl)-1H-pyrazol-4-yl)isozazol-4-yl)(isoxazolidin-2-yl)methanone] was 1000 to 10000 nM; that for `CON(C)C(=O)c1c(-c2c(F)cccc2Cl)noc1-c1cnn(-c2ccccc2Cl)c1C(F)(F)F` [Example B-51, 3-(2-chloro-6-fluorophenyl)-5-(1-(2-chlorophenyl)-5-(trifluoromethyl)-1H-pyrazol-4-yl)-N-methoxy-N-methylisoxazole-4-carboxamide] was 1000 to 10000 nM.
As to `O=C(c1c(-c2c(F)cccc2Cl)noc1-c1cnn(-c2ccccc2F)c1C(F)(F)F)N1CCCO1` [Example B-52, (3-(2-chloro-6-fluorophenyl)-5-(1-(2-fluorophenyl)-5-(trifluoromethyl)-1H-pyrazol-4-yl)isoxazol-4-yl)(isoxazolidin-2-yl)methanone], the IC50 was 1000 to 10000 nM.
The result for `CON(C)C(=O)c1c(-c2c(F)cccc2Cl)noc1-c1cnn(-c2ccccc2F)c1C(F)(F)F` [Example B-53, 3-(2-chloro-6-fluorophenyl)-5-(1-(2-fluorophenyl)-5-(trifluoromethyl)-1H-pyrazol-4-yl)-N-methoxy-N-methylisoxazole-4-carboxamide] reads 100 to 1000 nM; that for `O=C(c1c(-c2c(F)cccc2Cl)noc1-c1cnn(-c2cccnc2)c1C(F)(F)F)N1CCCO1` [Example B-54, (3-(2-chloro-6-fluorophenyl)-5-(1-(pyridin-3-yl)-5-(trifluoromethyl)-1H-pyrazol-4-yl)isoxazol-4-yl)(isoxazolidin-2-yl)methanone], 1000 to 10000 nM.
The value for `CNC(=O)c1c(-c2c(F)cccc2Cl)noc1-c1cnn(-c2cccnc2)c1C(F)(F)F` [Example B-55, 3-(2-chloro-6-fluorophenyl)-N-methyl-5-(1-(pyridin-3-yl)-5-(trifluoromethyl)-1H-pyrazol-4-yl)isoxazole-4-carboxamide] was 1000 to 10000 nM.
